From ChEMBL document CHEMBL1201862, “PubChem BioAssay data set” (2004)
Activity calls are given as the source filed them.

Key:
Assay type in all cases: functional
[1] = molecular target: Ribosomal protein S6 kinase beta-1 (Homo sapiens, UniProt P23443);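 note: measured as one member of a kinome-wide profiling panel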
SRSF protein kinase 1 = SRSF protein kinase 1 (Homo sapiens, UniProt Q96SB4);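 note: measured as one member of a kinome-wide kinase profiling panel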
[2] = molecular target: Casein kinase I isoform gamma-1 (Homo sapiens, UniProt Q9HCP0);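 note: measured as the CSNK1G1 member of a kinome profiling panel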
Chain of Casein kinase I isoform gamma-1 (Q9HCP0 whole entry, canonical isoform): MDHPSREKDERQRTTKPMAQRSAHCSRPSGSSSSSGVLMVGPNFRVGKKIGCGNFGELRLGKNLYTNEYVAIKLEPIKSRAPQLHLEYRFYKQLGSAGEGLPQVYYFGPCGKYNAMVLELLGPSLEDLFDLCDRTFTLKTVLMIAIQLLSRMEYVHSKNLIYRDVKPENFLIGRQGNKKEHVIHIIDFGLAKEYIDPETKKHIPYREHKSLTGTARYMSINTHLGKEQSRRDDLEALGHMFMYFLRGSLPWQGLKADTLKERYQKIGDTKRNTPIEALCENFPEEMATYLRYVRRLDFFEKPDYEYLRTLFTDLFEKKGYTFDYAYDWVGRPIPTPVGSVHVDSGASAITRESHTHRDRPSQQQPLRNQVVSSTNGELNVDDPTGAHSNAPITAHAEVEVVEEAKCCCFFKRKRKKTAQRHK

[3] = molecular target: Serine/threonine-protein kinase N2 (Homo sapiens, UniProt Q16513)
Chain of Serine/threonine-protein kinase N2 (Q16513 whole entry): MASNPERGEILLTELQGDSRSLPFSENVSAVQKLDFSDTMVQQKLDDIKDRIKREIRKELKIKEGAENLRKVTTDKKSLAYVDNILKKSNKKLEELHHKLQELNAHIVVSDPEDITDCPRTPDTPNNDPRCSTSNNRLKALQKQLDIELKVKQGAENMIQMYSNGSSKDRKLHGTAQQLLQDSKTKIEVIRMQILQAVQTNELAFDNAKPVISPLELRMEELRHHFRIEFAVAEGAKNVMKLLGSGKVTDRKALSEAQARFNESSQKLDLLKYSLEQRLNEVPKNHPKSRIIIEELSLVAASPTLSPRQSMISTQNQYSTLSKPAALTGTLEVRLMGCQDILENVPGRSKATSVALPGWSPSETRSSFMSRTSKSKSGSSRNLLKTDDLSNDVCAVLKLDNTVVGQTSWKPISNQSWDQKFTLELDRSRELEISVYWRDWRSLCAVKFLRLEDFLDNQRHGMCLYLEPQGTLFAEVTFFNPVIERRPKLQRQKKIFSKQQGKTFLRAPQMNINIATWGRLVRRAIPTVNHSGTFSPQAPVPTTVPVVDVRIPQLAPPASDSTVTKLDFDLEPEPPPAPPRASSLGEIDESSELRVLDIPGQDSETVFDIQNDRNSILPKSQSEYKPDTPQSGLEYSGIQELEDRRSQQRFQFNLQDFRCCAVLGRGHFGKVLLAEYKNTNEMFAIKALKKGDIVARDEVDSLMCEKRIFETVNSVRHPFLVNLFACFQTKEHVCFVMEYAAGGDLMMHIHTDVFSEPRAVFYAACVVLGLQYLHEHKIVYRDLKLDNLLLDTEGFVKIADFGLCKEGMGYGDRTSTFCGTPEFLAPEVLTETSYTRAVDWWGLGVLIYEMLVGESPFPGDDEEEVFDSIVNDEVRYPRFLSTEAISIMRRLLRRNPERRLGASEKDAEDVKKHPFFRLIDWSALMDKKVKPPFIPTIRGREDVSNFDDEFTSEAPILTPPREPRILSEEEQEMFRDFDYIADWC

[4] = molecular target: Proto-oncogene tyrosine-protein kinase ROS (Homo sapiens, UniProt P08922);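 note: ROS1 tested as one member of a kinome-wide kinase panel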
Chain of Proto-oncogene tyrosine-protein kinase ROS (P08922 whole entry): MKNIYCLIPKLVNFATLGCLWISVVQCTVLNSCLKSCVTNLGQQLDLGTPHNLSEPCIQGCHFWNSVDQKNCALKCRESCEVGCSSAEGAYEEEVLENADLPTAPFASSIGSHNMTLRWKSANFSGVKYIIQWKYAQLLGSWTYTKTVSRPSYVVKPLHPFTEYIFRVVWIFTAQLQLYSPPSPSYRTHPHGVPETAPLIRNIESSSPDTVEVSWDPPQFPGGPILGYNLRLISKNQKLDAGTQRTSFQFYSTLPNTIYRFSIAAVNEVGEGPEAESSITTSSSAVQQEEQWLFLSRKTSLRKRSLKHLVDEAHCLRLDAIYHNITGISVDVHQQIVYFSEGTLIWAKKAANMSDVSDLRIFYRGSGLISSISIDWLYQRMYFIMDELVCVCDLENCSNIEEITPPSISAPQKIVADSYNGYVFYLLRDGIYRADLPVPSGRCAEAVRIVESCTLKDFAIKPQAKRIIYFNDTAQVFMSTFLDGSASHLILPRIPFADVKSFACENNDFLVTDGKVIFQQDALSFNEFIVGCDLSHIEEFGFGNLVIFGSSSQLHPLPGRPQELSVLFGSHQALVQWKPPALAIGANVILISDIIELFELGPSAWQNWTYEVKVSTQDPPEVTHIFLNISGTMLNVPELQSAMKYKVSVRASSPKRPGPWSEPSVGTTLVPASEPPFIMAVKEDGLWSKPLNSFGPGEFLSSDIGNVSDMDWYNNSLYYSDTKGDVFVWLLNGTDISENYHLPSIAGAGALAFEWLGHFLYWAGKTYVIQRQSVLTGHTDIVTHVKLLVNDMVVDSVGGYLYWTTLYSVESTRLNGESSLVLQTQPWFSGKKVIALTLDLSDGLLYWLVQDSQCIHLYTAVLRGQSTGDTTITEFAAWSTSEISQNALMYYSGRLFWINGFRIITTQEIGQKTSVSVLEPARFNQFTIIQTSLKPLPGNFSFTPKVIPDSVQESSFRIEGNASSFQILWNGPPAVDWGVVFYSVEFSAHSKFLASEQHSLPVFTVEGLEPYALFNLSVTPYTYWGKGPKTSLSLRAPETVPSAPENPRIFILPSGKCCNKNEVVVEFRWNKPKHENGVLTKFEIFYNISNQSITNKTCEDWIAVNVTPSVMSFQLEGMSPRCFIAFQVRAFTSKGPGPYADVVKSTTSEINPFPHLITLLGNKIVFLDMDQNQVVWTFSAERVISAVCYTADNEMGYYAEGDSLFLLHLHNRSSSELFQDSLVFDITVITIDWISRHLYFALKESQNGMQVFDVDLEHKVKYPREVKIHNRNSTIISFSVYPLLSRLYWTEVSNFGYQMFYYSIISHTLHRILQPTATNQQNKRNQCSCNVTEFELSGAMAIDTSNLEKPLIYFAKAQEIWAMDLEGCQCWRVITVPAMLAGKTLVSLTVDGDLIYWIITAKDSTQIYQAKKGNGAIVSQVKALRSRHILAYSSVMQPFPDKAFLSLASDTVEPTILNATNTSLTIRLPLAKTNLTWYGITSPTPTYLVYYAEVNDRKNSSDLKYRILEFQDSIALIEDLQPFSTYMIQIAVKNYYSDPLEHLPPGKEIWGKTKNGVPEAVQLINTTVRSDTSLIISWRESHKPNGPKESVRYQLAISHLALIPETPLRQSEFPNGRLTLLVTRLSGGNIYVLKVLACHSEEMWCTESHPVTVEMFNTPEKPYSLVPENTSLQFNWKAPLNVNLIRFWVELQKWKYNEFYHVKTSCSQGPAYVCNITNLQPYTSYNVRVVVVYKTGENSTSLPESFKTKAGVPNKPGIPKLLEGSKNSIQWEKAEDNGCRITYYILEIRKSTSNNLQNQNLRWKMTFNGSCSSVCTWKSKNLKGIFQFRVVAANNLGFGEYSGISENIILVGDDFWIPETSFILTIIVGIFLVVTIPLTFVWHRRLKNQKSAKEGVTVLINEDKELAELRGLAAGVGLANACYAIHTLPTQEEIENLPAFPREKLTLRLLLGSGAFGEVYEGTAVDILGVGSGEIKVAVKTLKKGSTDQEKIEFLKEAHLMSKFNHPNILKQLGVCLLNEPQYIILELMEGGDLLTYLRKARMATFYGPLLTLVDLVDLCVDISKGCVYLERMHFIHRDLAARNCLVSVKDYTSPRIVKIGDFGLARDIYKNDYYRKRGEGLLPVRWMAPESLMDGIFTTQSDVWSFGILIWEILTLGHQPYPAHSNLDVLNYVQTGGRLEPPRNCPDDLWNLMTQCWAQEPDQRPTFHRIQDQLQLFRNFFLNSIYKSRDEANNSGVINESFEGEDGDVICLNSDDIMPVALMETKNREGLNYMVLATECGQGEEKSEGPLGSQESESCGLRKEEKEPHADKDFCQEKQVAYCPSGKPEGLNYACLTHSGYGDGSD

[5] = molecular target: Mitogen-activated protein kinase 1 (Homo sapiens, UniProt P28482)
Chain of Mitogen-activated protein kinase 1 (P28482 whole entry): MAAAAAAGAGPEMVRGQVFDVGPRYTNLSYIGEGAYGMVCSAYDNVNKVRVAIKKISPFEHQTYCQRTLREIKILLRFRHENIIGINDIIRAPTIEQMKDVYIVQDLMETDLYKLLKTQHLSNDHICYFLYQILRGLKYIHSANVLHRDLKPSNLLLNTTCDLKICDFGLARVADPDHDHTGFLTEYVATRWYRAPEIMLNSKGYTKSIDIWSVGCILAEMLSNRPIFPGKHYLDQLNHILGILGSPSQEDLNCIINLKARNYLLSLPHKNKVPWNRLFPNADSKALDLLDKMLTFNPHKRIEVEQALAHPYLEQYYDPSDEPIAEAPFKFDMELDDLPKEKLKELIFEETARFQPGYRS

[6] = molecular target: Serine/threonine-protein kinase pim-2 (Homo sapiens, UniProt Q9P1W9);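 note: value comes from a broad kinase panel profiling study in which PIM2 was one of the panel members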
Chain of Serine/threonine-protein kinase pim-2 (Q9P1W9 whole entry): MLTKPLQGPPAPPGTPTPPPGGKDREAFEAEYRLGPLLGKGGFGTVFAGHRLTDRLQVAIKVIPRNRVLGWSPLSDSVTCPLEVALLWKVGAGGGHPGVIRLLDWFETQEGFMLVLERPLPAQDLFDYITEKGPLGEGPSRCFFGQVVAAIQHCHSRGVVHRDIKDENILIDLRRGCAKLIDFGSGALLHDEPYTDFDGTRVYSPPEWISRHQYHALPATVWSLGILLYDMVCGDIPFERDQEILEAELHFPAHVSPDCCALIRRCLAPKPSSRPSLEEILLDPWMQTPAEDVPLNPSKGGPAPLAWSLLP

[7] = molecular target: Serine/threonine-protein kinase Nek2 (Homo sapiens, UniProt P51955)
Chain of Serine/threonine-protein kinase Nek2 (P51955 whole entry): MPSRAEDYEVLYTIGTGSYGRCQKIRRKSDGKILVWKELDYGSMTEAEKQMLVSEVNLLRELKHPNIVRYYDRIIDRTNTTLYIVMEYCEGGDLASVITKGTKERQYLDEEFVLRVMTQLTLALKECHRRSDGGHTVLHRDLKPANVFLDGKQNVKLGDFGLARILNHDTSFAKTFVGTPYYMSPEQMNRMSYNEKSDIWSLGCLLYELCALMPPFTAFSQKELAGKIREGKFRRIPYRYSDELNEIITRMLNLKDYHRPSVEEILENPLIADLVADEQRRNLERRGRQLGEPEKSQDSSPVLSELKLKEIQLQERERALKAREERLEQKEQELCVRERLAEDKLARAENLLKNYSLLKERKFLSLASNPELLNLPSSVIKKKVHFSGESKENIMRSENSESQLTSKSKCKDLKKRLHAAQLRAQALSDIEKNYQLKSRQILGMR

[8] = molecular target: Fibroblast growth factor receptor 3 (Homo sapiens, UniProt P22607)
[9] = molecular target: Serine/threonine-protein kinase MRCK alpha (Homo sapiens, UniProt Q5VT25)
Aurora kinase A = molecular target: T1, Aurora kinase A (Homo sapiens, UniProt O14965);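 note: value from the Navigating the Kinome kinase panel profiling, panel entry STK6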
T1 sequence (O14965 whole entry): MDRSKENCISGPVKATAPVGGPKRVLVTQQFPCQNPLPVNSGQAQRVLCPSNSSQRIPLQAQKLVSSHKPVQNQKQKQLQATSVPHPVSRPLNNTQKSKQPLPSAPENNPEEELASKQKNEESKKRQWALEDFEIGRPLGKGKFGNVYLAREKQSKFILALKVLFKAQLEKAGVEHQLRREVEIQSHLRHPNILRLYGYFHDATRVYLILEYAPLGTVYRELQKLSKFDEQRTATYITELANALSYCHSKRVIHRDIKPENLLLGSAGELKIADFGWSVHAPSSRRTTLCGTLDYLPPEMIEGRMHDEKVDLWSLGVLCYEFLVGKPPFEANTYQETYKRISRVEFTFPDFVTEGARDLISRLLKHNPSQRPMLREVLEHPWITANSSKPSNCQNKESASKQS

Row | Ki [1] | pKi [1] | Ki (SRSF protein kinase 1) | pKi (SRSF protein kinase 1) | Ki [2] | pKi [2] | Ki [3] | pKi [3] | Ki [4] | pKi [4] | Ki [5] | pKi [5] | Ki [6] | pKi [6] | Ki [7] | pKi [7] | Ki [8] | Ki [9] | pKi [9] | Ki (Aurora kinase A) | Compound
1 | 100 nM (active) | 7 | 1000 nM (active) | 6 | 316 nM (active) | 6.5 | 7.94 nM (active) | 8.1 | 158 nM (active) | 6.8 | 50.1 nM (active) | 7.3 | 398 nM (active) | 6.4 | 6310 nM (active) | 5.2 | > 2000 nM (inactive) | 31.6 nM (active) | 7.5 | – | OC1CCC(Nc2nc(Cl)cc(-c3c[nH]c4ncccc34)n2)CC1 (stereo not given)
2 | – | – | – | – | – | – | – | – | – | – | – | – | – | – | – | – | – | – | – | > 1580 nM (inactive) | COc1cccc(CNC(=O)c2cnc(-c3ccncc3)nc2)c1
